Measurements from patent EP1979351B1, “6-PHENYL-1H-IMIDAZO[4, 5-C]PYRIDINE-4-CARBONITRILE DERIVATIVES AS CATHEPSIN K AND S INHIBITORS” (N.V. Organon, priority 2006, dated 2007).

Target: recombinant human Cathepsin S (Homo sapiens, UniProt P25774)
Assay: Cathepsin S assay procedure: inhibition of enzyme activity, fluorescence of liberated aminomethylcoumarin
Assay type: biochemical
Conditions: activated recombinant human cathepsin S; substrate Z-Val-Val-Arg-AMC; sodium acetate pH5.5; fluorescence at 20 minutes; dose response curve; read-out: pIC50 (negative logarithm of the IC50 concentration) for inhibition of human cathepsin S (converted)
Method: 25µl of a 2mg/l solution of activated recombinant human cathepsin S, in assay buffer, is then added to the well, yielding a final inhibitor concentration of 10µM.
Enzyme activity is determined by measuring the fluorescence of the liberated aminomethylcoumarin at […] using 390nm excitation, at 20 minutes. Percentage enzyme activity is calculated by comparison of this activity to that of a solution containing no inhibitor.

Chain of recombinant human Cathepsin S (P25774 115-331): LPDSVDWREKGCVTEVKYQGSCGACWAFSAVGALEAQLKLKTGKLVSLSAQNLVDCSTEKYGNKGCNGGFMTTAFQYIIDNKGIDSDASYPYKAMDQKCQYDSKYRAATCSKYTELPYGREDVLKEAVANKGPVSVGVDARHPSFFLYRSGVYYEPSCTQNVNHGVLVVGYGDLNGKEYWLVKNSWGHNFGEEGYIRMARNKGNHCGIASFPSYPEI

Compound	IC50 [nM]
CCOc1ccc(-c2cc3c(ncn3CCCC(=O)O)c(C#N)n2)cc1C(F)(F)F [Example 4, [4-Cyano-6-(4-ethoxy-3-trifluoromethyl-phenyl)-imidazo[4,5-c]pyridin-1-yl]-butyric acid]	< 100
CCOc1ccc(-c2cc3[nH]c(CN4CCN(CCO)CC4)nc3c(C#N)n2)cc1C(F)(F)F [Example 13l, 6-(4-Ethoxy-3-trifluoromethyl-phenyl)-2-[4-(2-hydroxy-ethyl)-piperazin-1-ylmethyl]-1H-imidazo[4,5-c]pyridine-4-carbonitrile]	< 100
